Results on 16 compounds are retold here after ChEMBL document CHEMBL5661943, “ASAP - In vitro antiviral effect” (2024).

For one assay, the system named is Zika virus. Briefly: Functional CPE-based assay to measure dose dependent changes in antiviral-drug inhibitory efficacy against Zika virus MR766 in Vero E6 miRFP670 cells (cotreated with P-gp inhibitor, CP100356). Cells are treated with antiviral candidates that are serially diluted. EC50 is reported via analysis of MTS assay as a readout of CPE. The assay has been performed by KU Leuven. The class given is organism-based, Chlorocebus sabaeus, Vero C1008. As to conditions: Zika virus; for EC90: P-gp concentration 500 nM, P-gp inhibitor CP100356. A general note: Tetrazolium assays rely on reduction of a dye to a coloured formazan, in cell work by metabolically active cells.

For the next assay, the system named is dengue virus type 2. Kind of assay: Functional assay to measure dose dependent changes in antiviral-drug inhibitory efficacy against Dengue virus type 2 New Guinea C in Vero E6 miRFP670 cells (cotreated with P-gp inhibitor, CP100356). Cells are treated with antiviral candidates that are serially diluted, following infection, cells are fixed. EC50 is reported via analysis of fluorescence intensity using high-content imager. The …. The class given is organism-based, Chlorocebus sabaeus, Vero C1008. As to conditions: for EC90: P-gp concentration 500 nM, P-gp inhibitor CP100356.

The EC50 is the concentration at which the effect is half-maximal. As a reminder, the EC90 is the concentration needed for an effect of 90%. On to `O=C(Nc1ccc2c(c1)CNC2)c1cccc2[nH]c(C(F)(F)F)cc12`, for which the EC50 in the assay on Zika virus (Vero C1008) amounted to 0.857 µM; with dengue virus type 2 (Dengue virus, Vero C1008) it was 11.6 µM. In addition, the EC90 is 1.93 µM in the assay with Zika virus (Vero C1008, Baseline response 0 %, EC90 CI (lower) 0.735 uM, EC90 CI (upper) 5.08 uM, Hill slope 2.705, Maximum measured 139.12 %, Maximum response 100 %, Minimum measured 13.658 %, R squared 0.773) and greater than 12.5 µM with dengue virus type 2 (Dengue virus, Vero C1008, Baseline response 0 %, Hill slope -1.333, Maximum measured 97.959 %, Maximum response 100 %, Minimum measured 43.335 %, R squared 0.826).
As to `O=C(Nc1ccc2c(c1)CNC2)c1cc(Cl)cc2cn[nH]c12`, the EC50 is 3.01 µM in the assay on Zika virus (Vero C1008) and greater than 50 µM with dengue virus type 2 (Dengue virus, Vero C1008). The EC90 in the assay with Zika virus (Vero C1008, Baseline response 0 %, EC90 CI (lower) 2.341 uM, EC90 CI (upper) 14.506 uM, Hill slope 3.321, Maximum measured 138.559 %, Maximum response 100 %, Minimum measured 2.928 %, R squared 0.845) is 5.83 µM; in the assay on dengue virus type 2 (Dengue virus, Vero C1008, Maximum measured 130.797 %, Minimum measured 96.2 %) it was greater than 50 µM.
As for `O=C(Nc1ccc2c(c1)CNC2)c1cc(Cl)cc2[nH]c(-c3ccnn3C3CC3)nc12`, the EC50 in the assay with Zika virus (Vero C1008) is greater than 0.781 µM; in the assay with dengue virus type 2 (Dengue virus, Vero C1008), greater than 6.25 µM. Besides, the EC90 in the assay with Zika virus (Vero C1008, Baseline response 0 %, Hill slope 2.383, Maximum measured 38.126 %, Maximum response 100 %, Minimum measured 10.566 %, R squared 0.88) is greater than 0.781 µM; in the assay with dengue virus type 2 (Dengue virus, Vero C1008, Baseline response 0 %, Hill slope 11.741, Maximum measured 109.967 %, Maximum response 100 %, Minimum measured 87.357 %, R squared 0.219) it was greater than 6.25 µM.
With `O=C(NCCCn1ccnc1)[C@H](Nc1ccc2c(c1)CNC2)c1cc(Cl)cc(C2CC2)c1`, the EC50 with Zika virus (Vero C1008) was greater than 50 µM; with dengue virus type 2 (Dengue virus, Vero C1008), greater than 50 µM. Also, the EC90 in the assay on Zika virus (Vero C1008, Maximum measured 4.008 %, Minimum measured -17.269 %) was greater than 50 µM; with dengue virus type 2 (Dengue virus, Vero C1008, Baseline response 0 %, Hill slope 0.691, Maximum measured 120.843 %, Maximum response 100 %, Minimum measured 86.475 %, R squared 0.179) it was greater than 50 µM.
For `Cn1cc2c(C(=O)Nc3ccc4c(c3)CNC4)cc(F)cc2n1`, the EC50 with Zika virus (Vero C1008) was 3.02 µM; in the assay on dengue virus type 2 (Dengue virus, Vero C1008), greater than 50 µM. In addition, the EC90 is 9.23 µM with Zika virus (Vero C1008, Baseline response 0 %, EC90 CI (lower) 4.41 uM, EC90 CI (upper) 19.306 uM, Hill slope 1.966, Maximum measured 124.261 %, Maximum response 100 %, Minimum measured 18.013 %, R squared 0.888) and greater than 50 µM in the assay with dengue virus type 2 (Dengue virus, Vero C1008, Baseline response 0 %, Hill slope 0.83, Maximum measured 109.464 %, Maximum response 100 %, Minimum measured 93.167 %, R squared 0.272).
On to `O=C(Nc1ccc2c(c1)CNC2)c1cc(Cl)cc2cc[nH]c12`, for which the EC50 amounted to 1 µM in the assay on Zika virus (Vero C1008) and 2.21 µM with dengue virus type 2 (Dengue virus, Vero C1008). The EC90 in the assay with Zika virus (Vero C1008, Baseline response 0 %, EC90 CI (lower) 0.797 uM, EC90 CI (upper) 4.564 uM, Hill slope 3.408, Maximum measured 129.449 %, Maximum response 100 %, Minimum measured 8.447 %, R squared 0.85) is 1.91 µM; with dengue virus type 2 (Dengue virus, Vero C1008, Baseline response 0 %, Hill slope -2.776, Maximum measured 94.432 %, Maximum response 100 %, Minimum measured 26.957 %, R squared 0.875), greater than 3.12 µM.
In the case of `Cn1c(=O)[nH]c2c(C(=O)Nc3ccc4c(c3)CNC4)cc(Br)cc21`, the EC50 is 0.724 µM with Zika virus (Vero C1008) and greater than 50 µM in the assay with dengue virus type 2 (Dengue virus, Vero C1008). The EC90 is 2.3 µM in the assay on Zika virus (Vero C1008, Baseline response 0 %, EC90 CI (lower) 0.762 uM, EC90 CI (upper) 6.925 uM, Hill slope 1.902, Maximum measured 109.696 %, Maximum response 100 %, Minimum measured 27.933 %, R squared 0.521) and greater than 50 µM in the assay with dengue virus type 2 (Dengue virus, Vero C1008, Baseline response 0 %, Hill slope -2.293, Maximum measured 105.522 %, Maximum response 100 %, Minimum measured 55.095 %, R squared 0.397).
In the case of `O=C(Nc1ccc2c(c1)CNC2)c1cc(F)cc2c1CCC2`, the EC50 in the assay with Zika virus (Vero C1008) is 1.81 µM; in the assay with dengue virus type 2 (Dengue virus, Vero C1008), greater than 6.25 µM. Moreover, the EC90 in the assay on Zika virus (Vero C1008, Baseline response 0 %, EC90 CI (lower) 1.329 uM, EC90 CI (upper) 15.086 uM, Hill slope 2.425, Maximum measured 145.547 %, Maximum response 100 %, Minimum measured 22.113 %, R squared 0.732) was 4.48 µM; in the assay with dengue virus type 2 (Dengue virus, Vero C1008, Baseline response 0 %, Hill slope -2.434, Maximum measured 106.021 %, Maximum response 100 %, Minimum measured 60.209 %, R squared 0.87), greater than 6.25 µM.
On to `Cc1cccc(-c2nc3c(C(=O)Nc4ccc5c(c4)CNC5)cc(Cl)cc3[nH]2)c1O`, for which the EC50 in the assay on Zika virus (Vero C1008) was greater than 50 µM; in the assay with dengue virus type 2 (Dengue virus, Vero C1008) it was 46.9 µM; in the assay with dengue virus type 2 (vero c1008), greater than 50 µM. Further, the EC90 in the assay on Zika virus (Vero C1008, Maximum measured 4.83 %, Minimum measured -9.413 %) was greater than 50 µM; in the assay on Zika virus (Vero C1008, Baseline response 0 %, Hill slope 1.997, Maximum measured 9.723 %, Maximum response 100 %, Minimum measured -5.385 %, R squared 0.475), greater than 50 µM; in the assay with dengue virus type 2 (Dengue virus, Vero C1008, Maximum measured 146.036 %, Minimum measured 86.561 %), greater than 50 µM; with dengue virus type 2 (Dengue virus, Vero C1008, Baseline response 0 %, Hill slope -5.285, Maximum measured 123.385 %, Maximum response 100 %, Minimum measured 41.68 %, R squared 0.576) it was greater than 50 µM.
For the compound `O=C(Nc1ccc2c(c1)CNC2)c1cccc2[nH]c(=O)[nH]c12`, the EC50 is greater than 50 µM in the assay with Zika virus (Vero C1008) and greater than 12.5 µM in the assay with dengue virus type 2 (Dengue virus, Vero C1008). The EC90 with Zika virus (Vero C1008, Maximum measured 11.079 %, Minimum measured -6.229 %) is greater than 50 µM; in the assay with dengue virus type 2 (Dengue virus, Vero C1008, Baseline response 0 %, Hill slope 0.241, Maximum measured 94.031 %, Maximum response 100 %, Minimum measured 72.295 %, R squared 0.287) it was greater than 12.5 µM.
`CC(C)CNC(=O)[C@H](Nc1ccc2c(c1)CNC2)c1cc(Cl)cc2[nH]ncc12`: the EC50 was 14.2 µM in the assay with Zika virus (Vero C1008) and greater than 50 µM in the assay on dengue virus type 2 (Dengue virus, Vero C1008). Further, the EC90 in the assay on Zika virus (Vero C1008, Baseline response 0 %, EC90 CI (lower) 23.751 uM, EC90 CI (upper) 85.548 uM, Hill slope 1.9, Maximum measured 81.211 %, Maximum response 100 %, Minimum measured -3.072 %, R squared 0.886) is 45.1 µM; in the assay with dengue virus type 2 (Dengue virus, Vero C1008, Maximum measured 133.558 %, Minimum measured 96.187 %) it was greater than 50 µM.
`CCOCCNC(=O)[C@H](Nc1ccc2c(c1)CNC2)c1cc(Cl)cc2[nH]ncc12`: the EC50 with Zika virus (Vero C1008) was 39.6 µM; with dengue virus type 2 (Dengue virus, Vero C1008), greater than 50 µM. The EC90 is greater than 50 µM in the assay with Zika virus (Vero C1008, Baseline response 0 %, Hill slope 1.597, Maximum measured 58.987 %, Maximum response 100 %, Minimum measured -2.742 %, R squared 0.989) and greater than 50 µM in the assay with dengue virus type 2 (Dengue virus, Vero C1008, Maximum measured 134.278 %, Minimum measured 95.519 %).
Consider `CCCNC(=O)[C@H](Nc1ccc2c(c1)CNC2)c1cc(Cl)cc2[nH]ncc12`, for which the half-maximal effective concentration (EC50) in the assay with Zika virus (Vero C1008) is 6.6 µM; with dengue virus type 2 (Dengue virus, Vero C1008), greater than 50 µM. Besides, the EC90 with Zika virus (Vero C1008, Baseline response 0 %, EC90 CI (lower) 8.551 uM, EC90 CI (upper) 22.021 uM, Hill slope 3.004, Maximum measured 121.473 %, Maximum response 100 %, Minimum measured -0.697 %, R squared 0.949) is 13.7 µM; in the assay with dengue virus type 2 (Dengue virus, Vero C1008, Maximum measured 131.319 %, Minimum measured 89.09 %), greater than 50 µM.
Consider `O=C(NCc1cccnc1)[C@H](Nc1ccc2c(c1)CNC2)c1cc(Cl)cc2[nH]ncc12`, for which the EC50 in the assay with Zika virus (Vero C1008) is greater than 50 µM; in the assay with dengue virus type 2 (Dengue virus, Vero C1008), greater than 50 µM. The EC90 with Zika virus (Vero C1008, Maximum measured -0.377 %, Minimum measured -17.936 %) is greater than 50 µM; in the assay on dengue virus type 2 (Dengue virus, Vero C1008, Maximum measured 132.553 %, Minimum measured 89.084 %), greater than 50 µM.
Turning to `O=C(Nc1ccc2c(c1)CNC2)c1cc(F)cc2[nH]c(-c3ccccc3)nc12`, the EC50 in the assay with Zika virus (Vero C1008) is 2.13 µM; in the assay on dengue virus type 2 (vero c1008) it was greater than 6.25 µM. Besides, the EC90 with Zika virus (Vero C1008, Baseline response 0 %, Hill slope 1.327, Maximum measured 69.085 %, Maximum response 100 %, Minimum measured 18.26 %, R squared 0.744) was greater than 3.12 µM; with dengue virus type 2 (Dengue virus, Vero C1008, Maximum measured 101.649 %, Minimum measured 101.649 %) it was greater than 0.391 µM; in the assay with dengue virus type 2 (Dengue virus, Vero C1008, Maximum measured 246.46 %, Minimum measured 208.361 %) it was greater than 6.25 µM.
Consider `O=C(Nc1cc2c(cc1Br)CNC2)c1cc(F)cc2[nH]ncc12`, for which the EC50 was 0.721 µM in the assay with Zika virus (Vero C1008) and greater than 25 µM in the assay on dengue virus type 2 (Dengue virus, Vero C1008). Also, the EC90 in the assay with Zika virus (Vero C1008, Baseline response 0 %, EC90 CI (lower) 0.74 uM, EC90 CI (upper) 4.973 uM, Hill slope 2.246, Maximum measured 124.778 %, Maximum response 100 %, Minimum measured 29.701 %, R squared 0.756) was 1.92 µM; in the assay with dengue virus type 2 (Dengue virus, Vero C1008, Baseline response 0 %, Hill slope -2.027, Maximum measured 102.892 %, Maximum response 100 %, Minimum measured 55.622 %, R squared 0.83), greater than 25 µM.
